According to ChEMBL document CHEMBL1201862, “PubChem BioAssay data set” (2004):
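Each compound was tested at five concentrations against cells in 96-well plates for 48 hours. GI50: concentration for 50% inhibition of growth.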 The source made the active and inactive calls. No stated cut-off is given here; in the data, active = GI50 up to about 1.1 µM and inactive = higher.

How the values were obtained:
Test in all cases: inhibition of tumour cell growth, NCI panel, 48 h
CCRF-CEM = tested on: CCRF-CEM
DU-145 = tested on: DU-145
HOP-62 = tested on: HOP-62
Hs-578T = tested on: Hs-578T
K562 = tested on: K562
LOX IMVI = tested on: LOX IMVI
Malme-3M = tested on: Malme-3M
OVCAR-5 = tested on: OVCAR-5
RPMI-8226 = tested on: RPMI-8226
SF-539 = tested on: SF-539
SK-MEL-5 = tested on: SK-MEL-5
SK-OV-3 = tested on: SK-OV-3
TK-10 = tested on: TK-10
U-251 = tested on: U-251
UACC-62 = tested on: UACC-62
NCI-H460 = tested on: NCI-H460
NCI-H522 = tested on: NCI-H522
OVCAR-4 = tested on: OVCAR-4
SR = tested on: SR
MDA-N = tested on: MDA-N

Compound | GI50 (CCRF-CEM) | GI50 (DU-145) | GI50 (HOP-62) | GI50 (Hs-578T) | GI50 (K562) | GI50 (LOX IMVI) | GI50 (Malme-3M) | GI50 (OVCAR-5) | GI50 (RPMI-8226) | GI50 (SF-539) | GI50 (SK-MEL-5) | GI50 (SK-OV-3) | GI50 (TK-10) | GI50 (U-251) | GI50 (UACC-62) | GI50 (NCI-H460) | GI50 (NCI-H522) | GI50 (OVCAR-4) | GI50 (SR) | GI50 (MDA-N)
O=C1CC(c2ccc(O)cc2)C2(O1)C(=O)OC(C(O)CO)C2O (stereo unspecified) | > 100 µM (inactive) | > 100 µM (inactive) | > 100 µM (inactive) | > 100 µM (inactive) | > 100 µM (inactive) | > 100 µM (inactive) | 96.2 µM (inactive) | > 100 µM (inactive) | > 100 µM (inactive) | > 100 µM (inactive) | > 100 µM (inactive) | > 100 µM (inactive) | > 100 µM (inactive) | > 100 µM (inactive) | > 100 µM (inactive) | – | – | – | – | –
CCCCC(C)(C/C=C/[C@@H]1[C@@H](C(O)CCCCCC(=O)OC)C(=O)C[C@H]1O[Si](C)(C)C(C)(C)C)O[Si](C)(C)C (stereo partly specified) | 25.8 µM (inactive) | > 100 µM (inactive) | > 100 µM (inactive) | – | 36.5 µM (inactive) | 45.3 µM (inactive) | > 100 µM (inactive) | > 100 µM (inactive) | 31.2 µM (inactive) | > 100 µM (inactive) | 92.7 µM (inactive) | > 100 µM (inactive) | 97.7 µM (inactive) | 57.5 µM (inactive) | 91.8 µM (inactive) | 83.4 µM (inactive) | 23.2 µM (inactive) | 86.7 µM (inactive) | 25.3 µM (inactive) | –
COC(=O)C1(C(=O)OC)CC2=C(S(=O)(=O)c3ccccc3)C[C@@H](C#N)[C@H]2C1 | > 100 µM (inactive) | > 100 µM (inactive) | > 100 µM (inactive) | – | > 100 µM (inactive) | > 100 µM (inactive) | > 100 µM (inactive) | > 100 µM (inactive) | – | > 100 µM (inactive) | > 100 µM (inactive) | > 100 µM (inactive) | > 100 µM (inactive) | > 100 µM (inactive) | – | 91.4 µM (inactive) | 43.7 µM (inactive) | > 100 µM (inactive) | – | > 100 µM (inactive)
CCSCCCSCCSCC | > 100 µM (inactive) | > 100 µM (inactive) | > 100 µM (inactive) | – | > 100 µM (inactive) | > 100 µM (inactive) | – | > 100 µM (inactive) | – | > 100 µM (inactive) | > 100 µM (inactive) | > 100 µM (inactive) | > 100 µM (inactive) | > 100 µM (inactive) | > 100 µM (inactive) | > 100 µM (inactive) | > 100 µM (inactive) | 81.5 µM (inactive) | – | > 100 µM (inactive)
COc1ccc2sc(-n3nc4ccccc4c3Nc3nc4ccc(OC)cc4s3)nc2c1 | 96.4 µM (inactive) | 2.98 µM (inactive) | 1.79 µM (inactive) | 1.46 µM (inactive) | 1.59 µM (inactive) | 5.47 µM (inactive) | 3.8 µM (inactive) | 2.88 µM (inactive) | 0.887 µM (active) | 0.92 µM (active) | 2.26 µM (inactive) | 1.94 µM (inactive) | 2.62 µM (inactive) | 2.76 µM (inactive) | 2.95 µM (inactive) | 2.22 µM (inactive) | 2.52 µM (inactive) | 1.86 µM (inactive) | 23.4 µM (inactive) | –
Nc1ncc(Cc2nn3c(COc4ccc(Cl)cc4)nnc3s2)s1 | > 100 µM (inactive) | > 100 µM (inactive) | > 100 µM (inactive) | > 100 µM (inactive) | > 100 µM (inactive) | – | 3.61 µM (inactive) | > 100 µM (inactive) | > 100 µM (inactive) | > 100 µM (inactive) | > 100 µM (inactive) | > 100 µM (inactive) | 45.2 µM (inactive) | – | > 100 µM (inactive) | > 100 µM (inactive) | > 100 µM (inactive) | > 100 µM (inactive) | 49.2 µM (inactive) | –
COc1ccc2c(c1)CC[C@@H]1[C@@H]2CC[C@]2(C)C(=O)/C(=C/c3ccc(C#N)cc3)C[C@@H]12 | > 100 µM (inactive) | > 100 µM (inactive) | 97.1 µM (inactive) | – | > 100 µM (inactive) | > 100 µM (inactive) | > 100 µM (inactive) | > 100 µM (inactive) | > 100 µM (inactive) | > 100 µM (inactive) | > 100 µM (inactive) | > 100 µM (inactive) | > 100 µM (inactive) | > 100 µM (inactive) | > 100 µM (inactive) | > 100 µM (inactive) | > 100 µM (inactive) | 77.1 µM (inactive) | > 100 µM (inactive) | > 100 µM (inactive)
Cc1n[nH]c(=O)n1/N=C/c1c[nH]c2ccccc12 | > 100 µM (inactive) | > 100 µM (inactive) | > 100 µM (inactive) | – | > 100 µM (inactive) | – | > 100 µM (inactive) | 83.4 µM (inactive) | > 100 µM (inactive) | > 100 µM (inactive) | – | > 100 µM (inactive) | – | > 100 µM (inactive) | > 100 µM (inactive) | > 100 µM (inactive) | > 100 µM (inactive) | > 100 µM (inactive) | > 100 µM (inactive) | –
CC[n+]1[b-](C(C)(C)C)n(/N=C/C(C)(C)C)[b-](C(C)(C)C)[n+]1CC | 66.1 µM (inactive) | – | > 100 µM (inactive) | > 100 µM (inactive) | 67.1 µM (inactive) | > 100 µM (inactive) | > 100 µM (inactive) | > 100 µM (inactive) | – | > 100 µM (inactive) | > 100 µM (inactive) | – | > 100 µM (inactive) | > 100 µM (inactive) | > 100 µM (inactive) | > 100 µM (inactive) | > 100 µM (inactive) | > 100 µM (inactive) | > 100 µM (inactive) | > 100 µM (inactive)
O=C1/C(=C/c2cccc3ccccc23)Cc2ccccc21 | 59.2 µM (inactive) | – | – | 22 µM (inactive) | 62.4 µM (inactive) | 34.4 µM (inactive) | – | 29.2 µM (inactive) | 51.9 µM (inactive) | 27.2 µM (inactive) | 29.9 µM (inactive) | 18.6 µM (inactive) | 49.2 µM (inactive) | 19.6 µM (inactive) | 22.4 µM (inactive) | 36.6 µM (inactive) | – | 22.3 µM (inactive) | 57.3 µM (inactive) | –
COC(=O)Nc1cc(OCCCOC(C)=O)c2[nH]c(C(=O)OC)cc2c1C[C@H](O)CO | > 100 µM (inactive) | > 100 µM (inactive) | > 100 µM (inactive) | – | – | > 100 µM (inactive) | – | > 100 µM (inactive) | > 100 µM (inactive) | > 100 µM (inactive) | > 100 µM (inactive) | > 100 µM (inactive) | > 100 µM (inactive) | > 100 µM (inactive) | > 100 µM (inactive) | – | 2.94 µM (inactive) | > 100 µM (inactive) | > 100 µM (inactive) | > 100 µM (inactive)
CC(=O)Oc1ccc(-c2c(OC(C)=O)c(OC(C)=O)c(-c3ccc(OC(C)=O)c(OC(C)=O)c3)c(OC(C)=O)c2OC(C)=O)cc1 | 10.7 µM (inactive) | 16.3 µM (inactive) | – | – | 21.5 µM (inactive) | 16.1 µM (inactive) | 16.1 µM (inactive) | 12.5 µM (inactive) | 16.3 µM (inactive) | 18.2 µM (inactive) | 11.7 µM (inactive) | 22.3 µM (inactive) | 15.9 µM (inactive) | 17.5 µM (inactive) | 17.8 µM (inactive) | 40.1 µM (inactive) | 5.46 µM (inactive) | 17.6 µM (inactive) | 23.9 µM (inactive) | 16.9 µM (inactive)
